Test results as given in patent US4973472A, “Dental plaque inhibitor” (Senju Pharmaceutical Col., Ltd., priority 1988, dated 1990).

Columns and labels:
GTase = assay: GTase-inhibitory activity (formation of insoluble glucan from sucrose, turbidity at 550 nm); type: biochemical, Streptococcus mutans ATCC 33402; details: for Optical density of reaction system: 550 nm
Experimental: The enzyme GTase was prepared from Streptococcus mutans and using sucrose as the substrate, the inhibitory effect of the test substances on the formation of insoluble glucan was determined.
The preparation of GTase was carried out in accordance with the description in Methods for Isolation of Microorganisms (Kazue Yamazato (ed.): R&D Planning), page 733, (1) Preparation of cell-free GTase. Thus, Streptococcus mutans ATCC 33402 was cultured (inoculum size 1%) in brain heart infusion broth (Difco; hereinafter referred to as BHI medium) under stationary conditions at 37° C. for 18 hours and the resulting culture was centrifuged at 4,000 rpm for 10 minutes. The supernatant was taken and ammonium sulfate was added at a final concentration of 60% saturation. The mixture was gently stirred at 4° C. overnight for salting-out and the precipitate was dissolved in 5 mM potassium phosphate buffer (pH 6.5). This solution was then dialyzed against the same buffer at 4° C. overnight to give a crude GTase preparation.
The assay of GTase activity was carried out by the method described in Methods for Isolation of Microorganisms (ibid), page 733, (2) Assay of activities in microbial culture filtrates with minor modification. Thus, the solution prepared as per Tables 1 and 2 was used as a test solution and the corresponding solution prepared by using the same quantity of distilled water in lieu of the test substance solution in otherwise the same composition was used as a control solution. Test tubes were filled with 5 ml aliquots of the test solution or the control solution and allowed to stand in upright position at 37° C. for 16 hours. After completion of the reaction each tube was shaken well to agitate the reaction system and the optical density at 550 nm was measured to find the degree of turbidity. The inhibitory activity of the test substance against GTase was calculated as a percentage with the turbidity of the control reaction system being taken as 100%. […]
Among the substances falling under the purview of the present invention, those mentioned in Table 3 (Substances 1 through 6) were used as test substances.
For each of the substances mentioned in Table 3, the GTase activity at the test substance concentration of 0.5% in the reaction system was assayed to estimate the inhibitory activity of the test substance.
For Substance 1, GTase activity was assayed in the reaction system corresponding to each concentration of the test substance in the range of 0.01% to 1.0% and to obtain correlation between inhibitory activity and test substance concentration.
For Substance 1 at a concentration of 0.5%, either aqueous sodium hydroxide solution or hydrochloric acid was added to portions of the substrate-test substance solution shown in Table 1 to prepare solutions adjusted to pH 4, 5, 6, 7 and 8, respectively, and using each of these solutions, the reaction was carried out at the corresponding pH. The GTase activity at each pH was assayed and the correlation between reaction system pH and inhibitory activity was studied.

Streptococcus mutans = assay: Prevention of the adhesion of tooth decaying bacteria to the human tooth; type: cell-based, Streptococcus mutans ATCC 330402; details: 0.5% Substance 1; BHI medium with 5% sucrose; 37° C., 6 hours; scanning electron microscope x 4,000
Experimental: Two test tubes were respectively filled with BHI medium containing 5% of sucrose and a sterilized human tooth was suspended in each of the tubes using a stainless steel wire. After Substance 1 was added to one of the tubes at a final concentration of 0.5%, a culture of Streptococcus mutans ATCC 330402 grown in BHI medium at 37° C. for 18 hours was added to both tubes at a final concentration of 10^8 CFU/ml. The tubes were further incubated at 37° C. for 6 hours, at the end of which time the teeth were taken out, rinsed and observed with a scanning electron microscope at a magnification of x 4,000.

[1] = Table 4, 0.5% test substance, 37° C., 16 hours, buffer pH 6.5
[2] = Table 4, 0.5% test substance, 37° C., 16 hours, buffer pH 6.5, control 0.55

Cc1c(C)c2c(c(C)c1OP(=O)(O)OC1=C(O)C(C(O)CO)OC1=O)CCC(C)(CCCC(C)CCCC(C)CCCC(C)C)O2 (centres unmarked) [Substance 1]
inhibitory activity, dependence on concentration (GTase; 0.01% to 1.0%): concentration-dependent | inhibition rates (GTase; 0.075% and higher concentrations): not less than 90% | formation of insoluble glucan (GTase; 0.5%, pH range where GTase was active): very slight | % Inhibition (GTase; [1]): 92.7% | Optical density of reaction system (GTase; [2]): 0.04 | % Inhibition (GTase; Table 5, concentration 0.01%): 59.7% | Optical density of reaction system (GTase; Table 5, concentration 0.01%, control 0.496): 0.20 | % Inhibition (GTase; Table 5, concentration 0.025%): 59.7% | Optical density of reaction system (GTase; Table 5, concentration 0.025%, control 0.496): 0.20 | % Inhibition (GTase; Table 5, concentration 0.05%): 59.7% | Optical density of reaction system (GTase; Table 5, concentration 0.05%, control 0.496): 0.20 | % Inhibition (GTase; Table 5, concentration 0.075%): 89.9% | Optical density of reaction system (GTase; Table 5, concentration 0.075%, control 0.496): 0.05 | % Inhibition (GTase; Table 5, concentration 0.1%): 96.0% | Optical density of reaction system (GTase; Table 5, concentration 0.1%, control 0.496): 0.02 | % Inhibition (GTase; Table 5, concentration 0.25%): 96.0% | Optical density of reaction system (GTase; Table 5, concentration 0.25%, control 0.496): 0.02 | % Inhibition (GTase; Table 5, concentration 0.5%): 96.0% | Optical density of reaction system (GTase; Table 5, concentration 0.5%, control 0.496): 0.02 | % Inhibition (GTase; Table 5, concentration 1.0%): 96.0% | Optical density of reaction system (GTase; Table 5, concentration 1.0%, control 0.496): 0.02 | Optical density (GTase; Table 6, pH 4, 0.5% test substance, control 0.08): 0.05 | % Inhibition (GTase; Table 6, pH 5, 0.5% test substance): 71.4% | Optical density (GTase; Table 6, pH 5, 0.5% test substance, control 0.35): 0.06 | % Inhibition (GTase; Table 6, pH 6, 0.5% test substance): 91.9% | Optical density (GTase; Table 6, pH 6, 0.5% test substance, control 0.62): 0.05 | % Inhibition (GTase; Table 6, pH 7, 0.5% test substance): 94.9% | Optical density (GTase; Table 6, pH 7, 0.5% test substance, control 0.59): 0.03 | Optical density (GTase; Table 6, pH 8, 0.5% test substance, control 0.05): 0.02 | inhibition rates (GTase; concentration of 0.01%): about 60% | inhibition rate (GTase; pH 5, 0.5%): about 70% | inhibition rate (GTase; pH 6 and 7, 0.5%): not less than 90% | adherent bacterial cells and colonies on the tooth surface (FIG. 2) (Streptococcus mutans): neither adherent bacterial cells nor colonies | adhesion of bacterial cells and subsequent formation of colonies on the tooth surface (Streptococcus mutans): completely inhibited

Cc1cc(OP(=O)(O)OC2=C(O)C(C(O)CO)OC2=O)c(C)c2c1OC(C)(CCCC(C)CCCC(C)CCCC(C)C)CC2 (centres unmarked) [Substance 2]
% Inhibition (GTase; [1]): 94.5% | Optical density of reaction system (GTase; [2]): 0.03

Cc1c(OP(=O)(O)OC2=C(O)C(C(O)CO)OC2=O)cc2c(c1C)OC(C)(CCCC(C)CCCC(C)CCCC(C)C)CC2 (centres unmarked) [Substance 3]
% Inhibition (GTase; [1]): 94.5% | Optical density of reaction system (GTase; [2]): 0.03

Cc1cc(OP(=O)(O)OC2=C(O)C(C(O)CO)OC2=O)cc2c1OC(C)(CCCC(C)CCCC(C)CCCC(C)C)CC2 (centres unmarked) [Substance 4]
% Inhibition (GTase; [1]): 94.5% | Optical density of reaction system (GTase; [2]): 0.03

CC(C)CCCC(C)CCCC(C)CCCC1(C)CCc2cc(OP(=O)(O)OC3=C(O)C(C(O)CO)OC3=O)ccc2O1 (centres unmarked) [Substance 5]
% Inhibition (GTase; [1]): 94.5% | Optical density of reaction system (GTase; [2]): 0.03

Cc1c(C)c2c(c(C)c1OP(=O)(O)OC1=C(O)C(C(O)CO)OC1=O)CCC(C)(CCCC(C)CCCC(C)CCCC(C)C)O2 (centres unmarked) [Substance 6]
% Inhibition (GTase; [1]): 95.8% | Optical density of reaction system (GTase; [2]): 0.02
